Laboratory results as given in PMC10056567, “Structural Insights into the Ligand–LsrK Kinase Binding Mode: A Step Forward in the Discovery of Novel Antimicrobial Agents” (Molecules, 2023).

How the values were obtained:
LsrK (ecLsrK) [1] = biological target: T1, LsrK (ecLsrK) (Escherichia coli, UniProt P77432); assay: tryptophan fluorescence quenching, modified Stern-Volmer; assay type: binding; parameters: 530 residues; details: 0.1 uM LsrK, PBS pH 7.4, 25 °C
LsrK (ecLsrK) [2] = biological target: T1, LsrK (ecLsrK); assay: biochemical

T1 sequence (P77432 whole entry): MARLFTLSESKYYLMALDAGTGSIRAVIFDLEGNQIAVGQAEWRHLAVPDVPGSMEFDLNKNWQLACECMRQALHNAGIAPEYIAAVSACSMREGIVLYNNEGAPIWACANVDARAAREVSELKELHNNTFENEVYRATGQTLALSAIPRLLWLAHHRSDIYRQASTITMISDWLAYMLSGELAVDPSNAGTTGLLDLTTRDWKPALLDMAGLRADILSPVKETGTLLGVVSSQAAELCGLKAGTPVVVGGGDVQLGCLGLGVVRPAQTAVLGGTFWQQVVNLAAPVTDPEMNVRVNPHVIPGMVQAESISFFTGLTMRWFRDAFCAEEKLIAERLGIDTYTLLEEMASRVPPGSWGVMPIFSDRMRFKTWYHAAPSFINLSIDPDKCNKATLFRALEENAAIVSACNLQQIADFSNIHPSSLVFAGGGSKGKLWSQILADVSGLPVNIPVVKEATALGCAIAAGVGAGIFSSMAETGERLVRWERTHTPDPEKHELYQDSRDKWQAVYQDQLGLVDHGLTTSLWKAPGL

Row | Compound | Kd (LsrK (ecLsrK) [1]) [nM] | Kd (LsrK (ecLsrK) [2]) [nM]
1 | O=CC1=C(O)C=CCO1 [Hib-carbaldehyde, 5-hydroxy-2H-pyran-6-carbaldehyde] | 140 | –
2 | Nc1ncnc2c1ncn2[C@@H]1O[C@H](COP(=O)(O)OP(=O)(O)OP(=O)(O)O)[C@@H](O)[C@H]1O [ATP] | – | 5070 ± 230
3 | COc1cc(C)cc2cc3c(c(O)c12)C(=O)CC[C@H]3O [(R)-ASME] | 190 | –
4 | Cc1cc(O)c(C=O)c2c1C(=O)Oc1c(COC(=O)/C=C/C(=O)O)c(O)c(C(=O)O)c(C)c1O2 [FP, fumarprotocetraric acid] | 217 ± 8 | –
5 | COC(=O)[C@@H]1OC(=O)C[C@@]1(O)C(=O)OC [Hib-ester, dimethyl (2R,3S)-3-hydroxy-5-oxotetrahydrofuran-2,3-dicarboxylate] | 78 | –
